Results published in ChEMBL document CHEMBL4184315, “Discovery of Inhibitor of Wnt Production 2 (IWP-2) and Related Compounds As Selective ATP-Competitive Inhibitors of Casein Kinase 1 (CK1) δ/ε” (J Med Chem, 2018).
The source made the active and inactive calls. No cut-off for these calls is given here.

Tests used:
[1] = molecular target: T1, Casein kinase I isoform delta (Homo sapiens, UniProt P48730); experiment: Inhibition of CK1delta in HEK293T cells assessed as stimulation of Wnt/beta-catenin signaling at 5 uM after 22 hrs in presence of Wnt3A-conditioned medium by Super-top flash reporter gene assay relative to control; assay type: cell-based
Target sequence in this assay (P48730 whole entry, looked up, the tested form may be a part, canonical isoform): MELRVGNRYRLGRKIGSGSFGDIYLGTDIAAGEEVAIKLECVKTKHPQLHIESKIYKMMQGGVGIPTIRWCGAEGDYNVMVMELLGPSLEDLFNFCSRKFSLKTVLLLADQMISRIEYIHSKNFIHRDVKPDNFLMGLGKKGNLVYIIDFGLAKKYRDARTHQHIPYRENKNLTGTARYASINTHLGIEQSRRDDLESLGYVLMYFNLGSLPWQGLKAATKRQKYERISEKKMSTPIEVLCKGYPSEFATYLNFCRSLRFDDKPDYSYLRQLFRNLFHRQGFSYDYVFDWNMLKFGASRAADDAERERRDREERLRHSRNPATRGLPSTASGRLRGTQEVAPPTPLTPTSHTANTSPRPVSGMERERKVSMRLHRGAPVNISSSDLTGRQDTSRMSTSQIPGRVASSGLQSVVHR

[2] = molecular target: T2, Casein kinase I isoform delta (Rattus norvegicus, UniProt Q06486); experiment: Inhibition of rat recombinant CK1delta kinase domain using alpha-casein as substrate after 30 mins in presence of [gamma-32P]-ATP by Cherenkov counting method
[3] = molecular target: T2, Casein kinase I isoform delta; experiment: Inhibition of full-length rat GST-tagged CK1delta using alpha-casein as substrate after 30 mins in presence of [gamma-32P]-ATP by Cherenkov counting method
[4] = molecular target: Casein kinase I isoform delta (Rattus norvegicus, UniProt Q06486, M82F); experiment: Inhibition of rat GST-tagged CK1delta M82F mutant at 10 uM using alpha-casein as substrate after 30 mins in presence of [gamma-32P]-ATP by Cherenkov counting method
[5] = molecular target: Casein kinase I isoform epsilon (Homo sapiens, UniProt P49674); experiment: Inhibition of human recombinant CK1epsilon using alpha-casein as substrate after 30 mins in presence of [gamma-32P]-ATP by Cherenkov counting method
[6] = molecular target: T3, Casein kinase I isoform alpha (Bos taurus) (UniProt P67827); experiment: Inhibition of bovine GST-tagged CK1alpha at 1 uM using alpha-casein as substrate after 30 mins in presence of [gamma-32P]-ATP by Cherenkov counting method
T3 sequence (whole entry): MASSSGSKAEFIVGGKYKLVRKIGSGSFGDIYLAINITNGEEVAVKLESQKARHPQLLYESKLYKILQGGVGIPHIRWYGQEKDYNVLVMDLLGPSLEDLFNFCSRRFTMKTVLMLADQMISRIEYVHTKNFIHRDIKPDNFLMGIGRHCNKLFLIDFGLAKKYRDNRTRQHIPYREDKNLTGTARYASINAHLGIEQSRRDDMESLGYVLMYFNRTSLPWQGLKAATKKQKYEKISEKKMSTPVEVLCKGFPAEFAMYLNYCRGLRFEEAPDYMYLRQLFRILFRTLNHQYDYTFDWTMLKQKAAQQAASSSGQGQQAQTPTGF

[7] = molecular target: Casein kinase I isoform gamma-3 (Homo sapiens) (UniProt Q9Y6M4); experiment: Inhibition of human GST-tagged CK1gamma3 at 1 uM using alpha-casein as substrate after 30 mins in presence of [gamma-32P]-ATP by Cherenkov counting method
[8] = molecular target: T1, Casein kinase I isoform delta; experiment: Inhibition of human recombinant CK1delta at 1 uM after 60 mins in presence of [gamma-33P]-ATP by scintillation counting method
Target sequence in this assay (P48730 whole entry, looked up, the tested form may be a part, canonical isoform): as the sequence (P48730 whole entry, looked up, the tested form may be a part, canonical isoform) above

[9] = molecular target: T4, Protein-serine O-palmitoleoyltransferase porcupine (Homo sapiens, UniProt Q9H237); experiment: Inhibition of porcupine in HEK293T cells transfected with Wnt3A-expressing vector assessed as suppression of Wnt/beta-catenin signaling after 22 hrs by Super-top flash reporter gene assay; assay type: cell-based
T4 sequence (Q9H237 whole entry): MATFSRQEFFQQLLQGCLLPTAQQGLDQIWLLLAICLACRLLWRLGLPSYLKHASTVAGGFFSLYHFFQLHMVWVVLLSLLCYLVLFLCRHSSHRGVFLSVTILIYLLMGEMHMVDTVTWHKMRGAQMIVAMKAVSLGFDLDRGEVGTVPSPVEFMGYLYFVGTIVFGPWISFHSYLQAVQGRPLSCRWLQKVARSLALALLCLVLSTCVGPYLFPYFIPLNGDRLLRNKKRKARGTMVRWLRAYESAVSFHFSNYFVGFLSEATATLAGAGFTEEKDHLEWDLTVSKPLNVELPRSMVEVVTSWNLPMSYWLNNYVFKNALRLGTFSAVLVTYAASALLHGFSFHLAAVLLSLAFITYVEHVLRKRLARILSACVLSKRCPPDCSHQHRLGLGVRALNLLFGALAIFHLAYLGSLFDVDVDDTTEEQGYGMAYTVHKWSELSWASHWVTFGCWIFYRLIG

[10] = molecular target: T5, Protein-serine O-palmitoleoyltransferase porcupine (Homo sapiens) (UniProt Q9H237); experiment: Inhibition of porcupine in HEK293T cells transfected with Wnt3A-expressing vector assessed as suppression of Wnt/beta-catenin signaling at 5 uM after 22 hrs by Super-top flash reporter gene assay relative to control; assay type: cell-based
T5 sequence (whole entry): T4 sequence (Q9H237 whole entry)

[11] = molecular target: T1, Casein kinase I isoform delta; experiment: Inhibition of CK1delta in HEK293T cells assessed as stimulation of Wnt/beta-catenin signaling after 22 hrs in presence of Wnt3A-conditioned medium by Super-top flash reporter gene assay; assay type: cell-based
Target sequence in this assay (P48730 whole entry, the tested form may be a part, canonical isoform): as the sequence (P48730 whole entry, looked up, the tested form may be a part, canonical isoform) above

HEK-293T [12] = experiment: Upregulation of renilla luciferase expression in HEK293T cells transfected with Wnt3A-expressing vector up to 5 uM after 22 hrs by luminescence assay relative to control; assay type: cell-based; settings: human
HEK-293T [13] = experiment: Upregulation of renilla luciferase expression in HEK293T cells up to 5 uM after 22 hrs in presence of Wnt3A-conditioned medium by luminescence assay relative to control; assay type: cell-based; settings: human
HEK-293T [14] = experiment: Toxicity in HEK293T cells at 0.5 to 5 uM after 6 to 22 hrs by CellTiter-Glo assay; assay type: cell-based; settings: human
[15] = molecular target: Casein kinase I isoform delta (Rattus norvegicus) (UniProt Q06486); experiment: Inhibition of full-length rat GST-tagged CK1delta assessed as residual activity at 10 uM using alpha-casein as substrate after 30 mins in presence of [gamma-32P]-ATP by Cherenkov counting method
[16] = molecular target: Casein kinase I isoform delta (Rattus norvegicus) (UniProt Q06486); experiment: Inhibition of rat recombinant CK1delta kinase domain assessed as residual activity at 10 uM using alpha-casein as substrate after 30 mins in presence of [gamma-32P]-ATP by Cherenkov counting method
[17] = Selectivity ratio of IC50 for human CK1epsilon to IC50 for full-length rat GST-tagged CK1delta
[18] = Selectivity ratio of IC50 for human CK1epsilon to IC50 for rat recombinant CK1delta kinase domain
[19] = molecular target: Casein kinase I isoform delta (Rattus norvegicus) (UniProt Q06486); experiment: Ratio of IC50 for full-length rat GST-tagged CK1delta to IC50 for rat recombinant CK1delta kinase domain
[20] = molecular target: Casein kinase I isoform delta (Rattus norvegicus) (UniProt Q06486); experiment: Competitive inhibition of full-length rat GST-tagged CK1delta at IC50 using alpha-casein as substrate after 30 mins in presence of 10 to 500 uM ATP and [gamma-32P]-ATP by Cherenkov counting method
[21] = molecular target: T1, Casein kinase I isoform delta; experiment: Inhibition of human recombinant CK1delta assessed as residual activity at 1 uM after 60 mins in presence of [gamma-33P]-ATP by scintillation counting method
Target sequence in this assay (P48730 whole entry, looked up, the tested form may be a part, canonical isoform): as the sequence (P48730 whole entry, looked up, the tested form may be a part, canonical isoform) above

[22] = molecular target: Tyrosine-protein kinase ZAP-70 (Homo sapiens) (UniProt P43403); experiment: Inhibition of recombinant human full length GST/His-tagged ZAP70 expressed in Sf9 cells assessed as residual activity at 1 uM after 60 mins in presence of [gamma-33P]-ATP by scintillation counting method
[23] = molecular target: Serine/threonine-protein kinase tousled-like 2 (Homo sapiens) (UniProt Q86UE8); experiment: Inhibition of recombinant human N-terminal FLAG/C-terminal HIS8-tagged TLK2 assessed as residual activity at 1 uM after 60 mins in presence of [gamma-33P]-ATP by scintillation counting method
[24] = molecular target: Tyrosine-protein kinase ZAP-70 (Homo sapiens) (UniProt P43403); experiment: Inhibition of recombinant human ZAP70 at 5 nM to 10 uM using poly (L-glutamic acid-L-tyrosine) as substrate after 30 mins in presence of [gamma-32P]-ATP by Cherenkov counting method
[25] = molecular target: Serine/threonine-protein kinase tousled-like 2 (Homo sapiens) (UniProt Q86UE8); experiment: Inhibition of recombinant human TLK2 at 5 nM to 10 uM using alpha-casein as substrate after 30 mins in presence of [gamma-32P]-ATP by Cherenkov counting method
[26] = Antiproliferative activity against human A818-6 cells after 48 hrs by MTT assay; assay type: functional, cell-based
MIA PaCa-2 = experiment: Antiproliferative activity against human MIAPaCa2 cells after 48 hrs by MTT assay; assay type: functional, cell-based; settings: MIA PaCa-2, 48 h
PANC-1 = experiment: Antiproliferative activity against human PANC1 cells after 48 hrs by MTT assay; assay type: functional, cell-based; settings: PANC-1, 48 h
[27] = Antiproliferative activity against human Panc89 cells after 48 hrs by MTT assay; assay type: functional, cell-based
HT-29 = experiment: Antiproliferative activity against human HT-29 cells after 48 hrs by MTT assay; assay type: functional, cell-based; settings: HT-29, 48 h
HEK293 = experiment: Antiproliferative activity against human HEK293 cells after 48 hrs by MTT assay; assay type: functional, cell-based; settings: HEK293, 48 h
SW-620 = experiment: Antiproliferative activity against human SW620 cells after 48 hrs by MTT assay; assay type: functional, cell-based; settings: SW-620, 48 h
CAPAN-1 = experiment: Antiproliferative activity against human Capan1 cells after 48 hrs by MTT assay; assay type: functional, cell-based; settings: CAPAN-1, 48 h
[28] = molecular target: T1, Casein kinase I isoform delta; experiment: Inhibition of CK1delta in human PANC1 cells assessed as residual activity at 2.33 uM using GST-tagged p53 (1 to 64 residues) as substrate after 48 hrs in presence of [gamma-32P]-ATP by Cherenkov counting method; assay type: cell-based
Target sequence in this assay (P48730 whole entry, looked up, the tested form may be a part, canonical isoform): as the sequence (P48730 whole entry, looked up, the tested form may be a part, canonical isoform) above

Homo sapiens = species on record: Homo sapiens; experiment: Inhibition of Wnt/beta-catenin signaling in HEK293T cells after 22 hrs in presence of Wnt3A-conditioned medium by Super-top flash reporter gene assay; assay type: cell-based

Chain of Casein kinase I isoform delta (Rattus norvegicus) (Q06486 whole entry, looked up, the tested form may be a part, canonical isoform): as the sequence (P48730 whole entry, looked up, the tested form may be a part, canonical isoform) above, with I381V counted along it
T2 sequence (Q06486 whole entry, the tested form may be a part, canonical isoform): as the sequence (P48730 whole entry, looked up, the tested form may be a part, canonical isoform) above, with I381V counted along it
Chain of Casein kinase I isoform epsilon (P49674 whole entry, canonical isoform): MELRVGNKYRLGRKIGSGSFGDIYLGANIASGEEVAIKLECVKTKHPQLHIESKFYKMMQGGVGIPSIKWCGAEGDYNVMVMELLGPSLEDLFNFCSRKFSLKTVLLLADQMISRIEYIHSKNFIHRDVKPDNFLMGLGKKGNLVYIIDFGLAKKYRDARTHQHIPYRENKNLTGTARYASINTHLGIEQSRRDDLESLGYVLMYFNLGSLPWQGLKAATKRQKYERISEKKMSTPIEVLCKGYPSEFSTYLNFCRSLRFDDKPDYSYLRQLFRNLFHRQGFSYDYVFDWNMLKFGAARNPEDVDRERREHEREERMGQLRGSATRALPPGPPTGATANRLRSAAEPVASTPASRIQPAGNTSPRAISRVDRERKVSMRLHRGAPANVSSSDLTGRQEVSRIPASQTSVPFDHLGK
Chain of Casein kinase I isoform delta (Rattus norvegicus, UniProt Q06486, M82F) (Q06486 whole entry M82F, canonical isoform): as the sequence (P48730 whole entry, looked up, the tested form may be a part, canonical isoform) above, with M82F, I381V counted along it
Chain of Serine/threonine-protein kinase tousled-like 2 (Homo sapiens) (Q86UE8 whole entry, looked up): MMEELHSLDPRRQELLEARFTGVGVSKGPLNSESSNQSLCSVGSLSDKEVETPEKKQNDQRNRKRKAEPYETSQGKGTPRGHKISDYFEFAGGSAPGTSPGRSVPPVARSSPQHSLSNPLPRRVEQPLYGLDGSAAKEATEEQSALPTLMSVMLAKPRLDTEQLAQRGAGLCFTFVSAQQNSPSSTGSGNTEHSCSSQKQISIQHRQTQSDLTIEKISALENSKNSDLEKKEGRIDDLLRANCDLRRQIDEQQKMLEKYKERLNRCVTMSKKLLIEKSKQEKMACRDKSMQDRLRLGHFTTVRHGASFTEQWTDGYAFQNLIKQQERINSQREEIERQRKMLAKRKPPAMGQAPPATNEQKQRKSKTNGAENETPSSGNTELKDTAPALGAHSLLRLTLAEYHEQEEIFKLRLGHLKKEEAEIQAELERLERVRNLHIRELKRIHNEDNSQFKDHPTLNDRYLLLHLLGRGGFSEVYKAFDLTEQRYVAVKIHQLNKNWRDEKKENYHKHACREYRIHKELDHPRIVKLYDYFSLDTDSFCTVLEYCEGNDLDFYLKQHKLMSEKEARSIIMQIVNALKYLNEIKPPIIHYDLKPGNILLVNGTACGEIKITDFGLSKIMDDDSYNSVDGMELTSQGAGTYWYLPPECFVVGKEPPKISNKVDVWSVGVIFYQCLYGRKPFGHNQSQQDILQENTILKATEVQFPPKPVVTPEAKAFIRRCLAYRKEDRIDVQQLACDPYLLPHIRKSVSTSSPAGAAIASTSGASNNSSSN
Chain of Tyrosine-protein kinase ZAP-70 (Homo sapiens) (P43403 whole entry): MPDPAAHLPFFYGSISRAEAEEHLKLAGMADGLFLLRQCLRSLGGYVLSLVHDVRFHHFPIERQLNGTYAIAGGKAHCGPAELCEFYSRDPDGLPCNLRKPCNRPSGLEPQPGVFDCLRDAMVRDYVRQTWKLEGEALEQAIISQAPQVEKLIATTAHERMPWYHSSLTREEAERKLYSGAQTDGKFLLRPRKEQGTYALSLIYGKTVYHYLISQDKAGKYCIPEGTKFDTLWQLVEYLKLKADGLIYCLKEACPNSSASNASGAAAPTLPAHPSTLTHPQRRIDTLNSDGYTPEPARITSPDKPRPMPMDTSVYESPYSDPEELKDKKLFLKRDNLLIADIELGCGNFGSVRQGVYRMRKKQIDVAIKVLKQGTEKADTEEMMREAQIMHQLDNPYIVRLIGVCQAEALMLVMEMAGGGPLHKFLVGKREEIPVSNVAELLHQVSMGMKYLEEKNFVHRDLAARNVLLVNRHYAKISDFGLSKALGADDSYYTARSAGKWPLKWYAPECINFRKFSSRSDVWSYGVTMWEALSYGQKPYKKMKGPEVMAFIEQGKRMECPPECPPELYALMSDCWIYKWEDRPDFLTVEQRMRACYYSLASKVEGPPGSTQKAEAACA
Chain of Casein kinase I isoform gamma-3 (Homo sapiens) (Q9Y6M4 whole entry, looked up, canonical isoform): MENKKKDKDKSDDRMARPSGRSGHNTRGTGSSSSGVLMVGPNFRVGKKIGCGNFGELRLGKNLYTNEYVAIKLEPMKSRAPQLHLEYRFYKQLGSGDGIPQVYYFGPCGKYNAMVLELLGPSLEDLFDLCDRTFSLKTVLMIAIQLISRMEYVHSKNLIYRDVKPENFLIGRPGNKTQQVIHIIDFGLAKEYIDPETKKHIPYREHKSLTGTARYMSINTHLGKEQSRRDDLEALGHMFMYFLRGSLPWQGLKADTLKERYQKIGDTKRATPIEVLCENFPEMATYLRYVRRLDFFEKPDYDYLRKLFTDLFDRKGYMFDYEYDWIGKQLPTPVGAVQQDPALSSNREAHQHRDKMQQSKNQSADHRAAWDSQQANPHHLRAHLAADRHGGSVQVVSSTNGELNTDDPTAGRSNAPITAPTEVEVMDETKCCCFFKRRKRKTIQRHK

## COc1ccc(Cn2c(SCC(=O)Nc3nc4ccc(C(F)(F)F)cc4s3)nc3c(c2=O)SCC3)cc1
[1]
  Emax: 225%
[2]
  IC50: 90 nM
[3]
  IC50: 410 nM
[4]
  IC50: 90 nM
[5]
  IC50: 560 nM
[6]
  inhibition: Active
[7]
  inhibition: Active
[8]
  inhibition: Active
[9]
  IC50: 710 nM
[10]
  Imax: 38.8%
[11]
  EC50: 1470 nM
HEK-293T [12]
  fold change (FC): <= 1.3
HEK-293T [13]
  fold change (FC): <= 1.5

## Fc1cccc(-n2cnc3c(NCc4nc5ccc(F)c(F)c5[nH]4)nc(N4CCOCC4)nc32)c1
HEK-293T [14]
  Activity: Toxic

## Cc1ccc2nc(NC(=O)CSc3nc4c(c(=O)n3-c3ccccc3)SCC4)sc2c1
[15]
  Activity: 23%
[16]
  Activity: 19%
[2]
  IC50: 320 nM
[3]
  IC50: 930 nM
[4]
  IC50: 40 nM
[5]
  IC50: 4030 nM
[17]
  Ratio IC50: 4 to 7
[18]
  Ratio IC50: < 17
[19]
  Ratio IC50: 4
[20]
  inhibition: Active
[21]
  Activity: 55%
[22]
  Activity: 54%
[23]
  Activity: 59%
[24]
  inhibition: inactive
[25]
  inhibition: inactive
[26]
  EC50: 8.96 µM
MIA PaCa-2
  EC50: 1900 nM
PANC-1
  EC50: 2330 nM
[27]
  EC50: 3.86 µM
HT-29
  EC50: 4.67 µM
HEK293
  EC50: 2760 nM
SW-620
  EC50: 1900 nM
CAPAN-1
  EC50: 2050 nM
[28]
  Activity: 66%
[9]
  IC50: 157 nM
[10]
  Imax: 5.5%
Homo sapiens
  inhibition: inactive
HEK-293T [12]
  fold change (FC): <= 1.3
HEK-293T [13]
  fold change (FC): <= 1.5
